Assay results reported in the supplement of paper PMC10307832.

Legend:
Assay in all cases: relative viability (nuclei count vs DMSO), 5 days (fraction); higher = more cells survive
NCI-H520 = system: NCI-H520
Method in brief: (§1)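 Medians of duplicate plates are given as relative viability. That measure is the nuclei count in treated wells divided by the count in vehicle wells. Counts were taken on 4× images of lung cancer cell lines in 1536-well plates, 5 days after pin-tool dosing the day after seeding with one drug alone or a fixed anchor-drug dose plus five library-drug doses (not always all listed) in √10 steps.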

NCI-H2170 = system: NCI-H2170
Method in brief: as §1

HOP-62 = system: HOP-62
Method in brief: as §1

NCI-H1793 = system: NCI-H1793
Method in brief: as §1

NCI-H23 = system: NCI-H23
Method in brief: as §1

SW 1573 = system: SW 1573
Method in brief: as §1

PC-14 = system: PC-14
Method in brief: as §1

NCI-H2023 = system: NCI-H2023
Method in brief: as §1

LOU-NH91 = system: LOU-NH91
Method in brief: as §1

NCI-H2405 = system: NCI-H2405
Method in brief: as §1

EPLC-272H = system: EPLC-272H
Method in brief: as §1

NCI-H2009 = system: NCI-H2009
Method in brief: as §1

HCC-44 = system: HCC-44
Method in brief: as §1

NCI-H441 = system: NCI-H441
Method in brief: as §1

NCI-H460 = system: NCI-H460
Method in brief: as §1

NCI-H727 = system: NCI-H727
Method in brief: as §1

ChaGo-K-1 = system: ChaGo-K-1
Method in brief: as §1

NCI-H650 = system: NCI-H650
Method in brief: as §1

NCI-H647 = system: NCI-H647
Method in brief: as §1

LCLC-103H = system: LCLC-103H
Method in brief: as §1

NCI-H1437 = system: NCI-H1437
Method in brief: as §1

NCI-H2126 = system: NCI-H2126
Method in brief: as §1

EMC-BAC-2 = system: EMC-BAC-2
Method in brief: as §1

NCI-H2347 = system: NCI-H2347
Method in brief: as §1

SW 900 = system: SW 900
Method in brief: as §1

SMILES: CCCCCCCCCCCC1=C(O)C(=O)C=C(O)C1=O [Embelin] + Cc1cc(Nc2cc(N3CCN(C)CC3)nc(Sc3ccc(NC(=O)C4CC4)cc3)n2)n[nH]1 [Tozasertib] (partner 0.1 µM)
- relative viability (NCI-H520; first compound 0.08 µM): 0.56
- relative viability (NCI-H520; first compound 0.8 µM): 0.459
- relative viability (NCI-H520; first compound 2.53 µM): 0.467
- relative viability (NCI-H520; first compound 8 µM): 0.376
- relative viability (NCI-H2170; first compound 0.08 µM): 0.798
- relative viability (NCI-H2170; first compound 0.8 µM): 0.761
- relative viability (NCI-H2170; first compound 2.53 µM): 0.818
- relative viability (NCI-H2170; first compound 8 µM): 0.731
- relative viability (HOP-62; first compound 0.08 µM): 0.313
- relative viability (HOP-62; first compound 0.8 µM): 0.456
- relative viability (HOP-62; first compound 2.53 µM): 0.377
- relative viability (HOP-62; first compound 8 µM): 0.387
- relative viability (NCI-H1793; first compound 0.08 µM): 0.399
- relative viability (NCI-H1793; first compound 0.8 µM): 0.44
- relative viability (NCI-H1793; first compound 2.53 µM): 0.4
- relative viability (NCI-H1793; first compound 8 µM): 0.327
- relative viability (NCI-H23; first compound 0.08 µM): 0.47
- relative viability (NCI-H23; first compound 0.8 µM): 0.462
- relative viability (NCI-H23; first compound 2.53 µM): 0.36
- relative viability (NCI-H23; first compound 8 µM): 0.34
- relative viability (SW 1573; first compound 0.08 µM): 0.18
- relative viability (SW 1573; first compound 0.8 µM): 0.25
- relative viability (SW 1573; first compound 2.53 µM): 0.167
- relative viability (SW 1573; first compound 8 µM): 0.187
- relative viability (PC-14; first compound 0.08 µM): 0.612
- relative viability (PC-14; first compound 0.8 µM): 0.718
- relative viability (PC-14; first compound 2.53 µM): 0.74
- relative viability (PC-14; first compound 8 µM): 0.644
- relative viability (NCI-H2023; first compound 0.08 µM): 0.412
- relative viability (NCI-H2023; first compound 0.8 µM): 0.406
- relative viability (NCI-H2023; first compound 2.53 µM): 0.369
- relative viability (NCI-H2023; first compound 8 µM): 0.302
- relative viability (LOU-NH91; first compound 0.08 µM): 0.751
- relative viability (LOU-NH91; first compound 0.8 µM): 0.827
- relative viability (LOU-NH91; first compound 2.53 µM): 0.749
- relative viability (LOU-NH91; first compound 8 µM): 0.808
- relative viability (NCI-H2405; first compound 0.08 µM): 0.816
- relative viability (NCI-H2405; first compound 0.8 µM): 0.798
- relative viability (NCI-H2405; first compound 2.53 µM): 0.847
- relative viability (NCI-H2405; first compound 8 µM): 0.826
- relative viability (EPLC-272H; first compound 0.08 µM): 0.213
- relative viability (EPLC-272H; first compound 0.8 µM): 0.182
- relative viability (EPLC-272H; first compound 2.53 µM): 0.277
- relative viability (EPLC-272H; first compound 8 µM): 0.22
- relative viability (NCI-H2009; first compound 0.08 µM): 0.753
- relative viability (NCI-H2009; first compound 0.8 µM): 0.915
- relative viability (NCI-H2009; first compound 2.53 µM): 0.798
- relative viability (NCI-H2009; first compound 8 µM): 0.714
- relative viability (HCC-44; first compound 0.08 µM): 1.03
- relative viability (HCC-44; first compound 0.8 µM): 1.12
- relative viability (HCC-44; first compound 2.53 µM): 0.814
- relative viability (HCC-44; first compound 8 µM): 0.836
- relative viability (NCI-H441; first compound 0.08 µM): 0.588
- relative viability (NCI-H441; first compound 0.8 µM): 0.628
- relative viability (NCI-H441; first compound 2.53 µM): 0.624
- relative viability (NCI-H441; first compound 8 µM): 0.629
- relative viability (NCI-H460; first compound 0.08 µM): 0.516
- relative viability (NCI-H460; first compound 0.8 µM): 0.493
- relative viability (NCI-H460; first compound 2.53 µM): 0.666
- relative viability (NCI-H460; first compound 8 µM): 0.883
- relative viability (NCI-H727; first compound 0.08 µM): 0.552
- relative viability (NCI-H727; first compound 0.8 µM): 0.565
- relative viability (NCI-H727; first compound 2.53 µM): 0.634
- relative viability (NCI-H727; first compound 8 µM): 0.675
- relative viability (ChaGo-K-1; first compound 0.08 µM): 0.243
- relative viability (ChaGo-K-1; first compound 0.8 µM): 0.239
- relative viability (ChaGo-K-1; first compound 2.53 µM): 0.212
- relative viability (ChaGo-K-1; first compound 8 µM): 0.243
- relative viability (NCI-H650; first compound 0.08 µM): 0.823
- relative viability (NCI-H650; first compound 0.8 µM): 1.04
- relative viability (NCI-H650; first compound 2.53 µM): 0.869
- relative viability (NCI-H650; first compound 8 µM): 0.724
- relative viability (NCI-H647; first compound 0.08 µM): 0.361
- relative viability (NCI-H647; first compound 0.8 µM): 0.26
- relative viability (NCI-H647; first compound 2.53 µM): 0.288
- relative viability (NCI-H647; first compound 8 µM): 0.245
- relative viability (LCLC-103H; first compound 0.08 µM): 0.549
- relative viability (LCLC-103H; first compound 0.8 µM): 0.557
- relative viability (LCLC-103H; first compound 2.53 µM): 0.508
- relative viability (LCLC-103H; first compound 8 µM): 0.501
- relative viability (NCI-H1437; first compound 0.08 µM): 0.41
- relative viability (NCI-H1437; first compound 0.8 µM): 0.417
- relative viability (NCI-H1437; first compound 2.53 µM): 0.457
- relative viability (NCI-H1437; first compound 8 µM): 0.448
- relative viability (NCI-H2126; first compound 0.08 µM): 0.809
- relative viability (NCI-H2126; first compound 0.8 µM): 0.907
- relative viability (NCI-H2126; first compound 2.53 µM): 0.919
- relative viability (NCI-H2126; first compound 8 µM): 0.878
- relative viability (EMC-BAC-2; first compound 0.08 µM): 0.27
- relative viability (EMC-BAC-2; first compound 0.8 µM): 0.318
- relative viability (EMC-BAC-2; first compound 2.53 µM): 0.269
- relative viability (EMC-BAC-2; first compound 8 µM): 0.267
- relative viability (NCI-H2347; first compound 0.08 µM): 0.608
- relative viability (NCI-H2347; first compound 0.8 µM): 0.465
- relative viability (NCI-H2347; first compound 2.53 µM): 0.575
- relative viability (NCI-H2347; first compound 8 µM): 0.612
- relative viability (SW 900; first compound 0.08 µM): 0.438
- relative viability (SW 900; first compound 0.8 µM): 0.672
- relative viability (SW 900; first compound 2.53 µM): 0.511
- relative viability (SW 900; first compound 8 µM): 0.718
